Test results published in PubChem BioAssay (NCI).
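How tested: cells in 96-well plates exposed to compound for 48 hours at five concentrations. The concentration for full growth arrest is given as TGI.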

Assays:
Assay in all cases: growth of human tumour cells (NCI), 48 h
786-0 renal = test system: 786-0 renal
A498 renal = test system: A498 renal
A549 NSCLC = test system: A549 NSCLC
ACHN renal = test system: ACHN renal
BT-549 breast = test system: BT-549 breast
CAKI-1 renal = test system: CAKI-1 renal
CCRF-CEM leukemia = test system: CCRF-CEM leukemia
COLO 205 colon = test system: COLO 205 colon
DU-145 prostate = test system: DU-145 prostate
EKVX NSCLC = test system: EKVX NSCLC
HCC-2998 colon = test system: HCC-2998 colon
HCT-116 colon = test system: HCT-116 colon
HCT-15 colon = test system: HCT-15 colon
HL-60(TB) leukemia = test system: HL-60(TB) leukemia
HOP-62 NSCLC = test system: HOP-62 NSCLC
HOP-92 NSCLC = test system: HOP-92 NSCLC
HS 578T breast = test system: HS 578T breast
HT29 colon = test system: HT29 colon
IGROV1 ovarian = test system: IGROV1 ovarian
K-562 leukemia = test system: K-562 leukemia
KM12 colon = test system: KM12 colon
LOX IMVI melanoma = test system: LOX IMVI melanoma
M14 melanoma = test system: M14 melanoma
MALME-3M melanoma = test system: MALME-3M melanoma
MCF7 breast = test system: MCF7 breast
MDA-MB-231 breast = test system: MDA-MB-231 breast
MDA-MB-435 = test system: MDA-MB-435
MDA-N = test system: MDA-N
MOLT-4 leukemia = test system: MOLT-4 leukemia
NCI-H226 lung = test system: NCI-H226 lung
NCI-H23 lung = test system: NCI-H23 lung
NCI-H460 lung = test system: NCI-H460 lung
NCI-H522 lung = test system: NCI-H522 lung
NCI/ADR-RES ovarian = test system: NCI/ADR-RES ovarian
OVCAR-3 ovarian = test system: OVCAR-3 ovarian
OVCAR-4 ovarian = test system: OVCAR-4 ovarian
OVCAR-5 ovarian = test system: OVCAR-5 ovarian
OVCAR-8 ovarian = test system: OVCAR-8 ovarian
PC-3 prostate = test system: PC-3 prostate
RXF 393 renal = test system: RXF 393 renal
SF-268 CNS = test system: SF-268 CNS
SF-295 CNS = test system: SF-295 CNS
SF-539 CNS = test system: SF-539 CNS
SK-MEL-2 melanoma = test system: SK-MEL-2 melanoma
SK-MEL-28 melanoma = test system: SK-MEL-28 melanoma
SK-MEL-5 melanoma = test system: SK-MEL-5 melanoma
SK-OV-3 ovarian = test system: SK-OV-3 ovarian
SN12C renal = test system: SN12C renal
SNB-19 CNS = test system: SNB-19 CNS
SNB-75 CNS = test system: SNB-75 CNS
SR leukemia = test system: SR leukemia
SW-620 colon = test system: SW-620 colon
T-47D breast = test system: T-47D breast
TK-10 renal = test system: TK-10 renal
U251 CNS = test system: U251 CNS
UACC-257 melanoma = test system: UACC-257 melanoma
UACC-62 melanoma = test system: UACC-62 melanoma
UO-31 renal = test system: UO-31 renal
RPMI-8226 leukemia = test system: RPMI-8226 leukemia

SMILES: C/C=C/[C@@H]1[C@H]2C(=O)[C@]3(Cl)[C@@H](/C=C/C)[C@@H]3C(=O)[C@@]12Cl
- TGI (786-0 renal): > 100 µM
- TGI (A498 renal): > 100 µM
- TGI (A549 NSCLC): > 100 µM
- TGI (ACHN renal): > 100 µM
- TGI (BT-549 breast): > 100 µM
- TGI (CAKI-1 renal): > 100 µM
- TGI (CCRF-CEM leukemia): > 100 µM
- TGI (COLO 205 colon): > 100 µM
- TGI (DU-145 prostate): > 100 µM
- TGI (EKVX NSCLC): > 100 µM
- TGI (HCC-2998 colon): > 100 µM
- TGI (HCT-116 colon): > 100 µM
- TGI (HCT-15 colon): > 100 µM
- TGI (HL-60(TB) leukemia): > 100 µM
- TGI (HOP-62 NSCLC): > 100 µM
- TGI (HOP-92 NSCLC): > 100 µM
- TGI (HS 578T breast): > 100 µM
- TGI (HT29 colon): > 100 µM
- TGI (IGROV1 ovarian): > 100 µM
- TGI (K-562 leukemia): > 100 µM
- TGI (KM12 colon): > 100 µM
- TGI (LOX IMVI melanoma): > 100 µM
- TGI (M14 melanoma): > 100 µM
- TGI (MALME-3M melanoma): > 100 µM
- TGI (MCF7 breast): > 100 µM
- TGI (MDA-MB-231 breast): > 100 µM
- TGI (MDA-MB-435): > 100 µM
- TGI (MDA-N): > 100 µM
- TGI (MOLT-4 leukemia): > 100 µM
- TGI (NCI-H226 lung): > 100 µM
- TGI (NCI-H23 lung): > 100 µM
- TGI (NCI-H460 lung): > 100 µM
- TGI (NCI-H522 lung): > 100 µM
- TGI (NCI/ADR-RES ovarian): > 100 µM
- TGI (OVCAR-3 ovarian): > 100 µM
- TGI (OVCAR-4 ovarian): > 100 µM
- TGI (OVCAR-5 ovarian): > 100 µM
- TGI (OVCAR-8 ovarian): > 100 µM
- TGI (PC-3 prostate): > 100 µM
- TGI (RXF 393 renal): > 100 µM
- TGI (SF-268 CNS): > 100 µM
- TGI (SF-295 CNS): > 100 µM
- TGI (SF-539 CNS): > 100 µM
- TGI (SK-MEL-2 melanoma): > 100 µM
- TGI (SK-MEL-28 melanoma): > 100 µM
- TGI (SK-MEL-5 melanoma): > 100 µM
- TGI (SK-OV-3 ovarian): > 100 µM
- TGI (SN12C renal): > 100 µM
- TGI (SNB-19 CNS): > 100 µM
- TGI (SNB-75 CNS): > 100 µM
- TGI (SR leukemia): > 100 µM
- TGI (SW-620 colon): > 100 µM
- TGI (T-47D breast): > 100 µM
- TGI (TK-10 renal): > 100 µM
- TGI (U251 CNS): > 100 µM
- TGI (UACC-257 melanoma): > 100 µM
- TGI (UACC-62 melanoma): > 100 µM
- TGI (UO-31 renal): > 100 µM

SMILES: Cc1nnc(N)nc1C/C=C/C(Sc1ccc(Cl)cc1)c1ccccc1 (stereo not given)
- TGI (786-0 renal): 11.4 µM
- TGI (A498 renal): 23.9 µM
- TGI (A549 NSCLC): > 64.7 µM
- TGI (ACHN renal): 18.2 µM
- TGI (BT-549 breast): 27.7 µM
- TGI (CAKI-1 renal): > 39.5 µM
- TGI (CCRF-CEM leukemia): 3.23 µM
- TGI (COLO 205 colon): > 41.9 µM
- TGI (DU-145 prostate): > 45.4 µM
- TGI (EKVX NSCLC): 16.1 µM
- TGI (HCC-2998 colon): 23.4 µM
- TGI (HCT-116 colon): > 27.8 µM
- TGI (HCT-15 colon): 15.9 µM
- TGI (HL-60(TB) leukemia): 6.13 µM
- TGI (HOP-62 NSCLC): 19.6 µM
- TGI (HOP-92 NSCLC): 23.7 µM
- TGI (HS 578T breast): 24.6 µM
- TGI (HT29 colon): 25.6 µM
- TGI (IGROV1 ovarian): 5.37 µM
- TGI (K-562 leukemia): > 100 µM
- TGI (KM12 colon): 15.7 µM
- TGI (LOX IMVI melanoma): 7.7 µM
- TGI (M14 melanoma): 20.7 µM
- TGI (MALME-3M melanoma): 14.6 µM
- TGI (MCF7 breast): > 34.7 µM
- TGI (MDA-MB-231 breast): > 33.1 µM
- TGI (MDA-MB-435): 14.9 µM
- TGI (MDA-N): > 95.9 µM
- TGI (MOLT-4 leukemia): > 32 µM
- TGI (NCI-H226 lung): 4.64 µM
- TGI (NCI-H23 lung): 22.2 µM
- TGI (NCI-H460 lung): 17.3 µM
- TGI (NCI-H522 lung): 3.69 µM
- TGI (NCI/ADR-RES ovarian): > 34.2 µM
- TGI (OVCAR-4 ovarian): 19.6 µM
- TGI (OVCAR-5 ovarian): 23 µM
- TGI (OVCAR-8 ovarian): 34.8 µM
- TGI (PC-3 prostate): 14.6 µM
- TGI (RPMI-8226 leukemia): > 42.9 µM
- TGI (RXF 393 renal): 16.2 µM
- TGI (SF-268 CNS): 21.6 µM
- TGI (SF-295 CNS): 10.9 µM
- TGI (SK-MEL-2 melanoma): 21 µM
- TGI (SK-MEL-28 melanoma): > 38.1 µM
- TGI (SK-MEL-5 melanoma): > 100 µM
- TGI (SK-OV-3 ovarian): 24.4 µM
- TGI (SN12C renal): > 48.1 µM
- TGI (SNB-19 CNS): 22.7 µM
- TGI (SNB-75 CNS): 16.5 µM
- TGI (SR leukemia): > 100 µM
- TGI (SW-620 colon): > 39.7 µM
- TGI (T-47D breast): > 48.8 µM
- TGI (TK-10 renal): 21.9 µM
- TGI (U251 CNS): 26.9 µM
- TGI (UACC-257 melanoma): 17 µM
- TGI (UACC-62 melanoma): 10.1 µM
- TGI (UO-31 renal): 12.4 µM
